Our source for the inhibition and IC50 values is ChEMBL document CHEMBL1137168, “Tubulin inhibitors. Synthesis and biological activity of HTI-286 analogs with B-segment heterosubstituents” (Bioorg Med Chem Lett, 2004).

Each structure is given as a SMILES string.

Assay [1] relates to Tubulin. In words: Compound was evaluated for the inhibition of MAP-rich tubulin polymerisation at 0.3 uM.
Assay [2] relates to KB-V1 (Homo sapiens). In words: Compound was tested for the cytotoxicity against KB-V1 cell line expressing P-glycoprotein.
Assay [3] relates to KB 3-1. Description: Compound was tested for the cytotoxicity against KB-3-1 cell line. The assay is classed as functional, cell-based. As to conditions: Homo sapiens.
Assay [4] deals with KB. Description: Compound was tested for the cytotoxicity against KB-8-5 cell line expressing P-glycoprotein. The assay is classed as functional, cell-based. The following applies: Homo sapiens.
Assay [5] deals with KB. In words: Compound was tested for the cytotoxicity against KB-8-5 cell line expressing P-glycoprotein; value ranges from 1.2-5 nM. The assay is classed as functional, cell-based. The following applies: Homo sapiens.
Assay [6] concerns KB 3-1. Description: Compound was tested for the cytotoxicity against KB-3-1 cell line; value ranges from 0.6-2 nM. The assay is classed as functional, cell-based. As to conditions: Homo sapiens.
For assay [7], the system named is KB 3-1. Description: Compound was tested for the cytotoxicity against KB-3-1 cell line; value ranges from 2-6 nM. The format is functional, cell-based. As to conditions: Homo sapiens.
Assay [8] relates to KB. In words: Compound was tested for the cytotoxicity against KB-8-5 cell line expressing P-glycoprotein; value ranges from 30-80 nM. The assay is classed as functional, cell-based. The following applies: Homo sapiens.

As usually defined, the inhibition is the change of the read-out against control, counted positive when it falls. Usually IC50 stands for the midpoint of a concentration-inhibition curve. High values mean weaker potency in that assay, low ones greater potency in that assay. Consider `CN[C@H](C(=O)N[C@H](C(=O)N(C)[C@H](/C=C(\C)C(=O)O)C(C)C)C(C)(C)[S+](C)[O-])C(C)(C)c1ccccc1` (some centres not stated), for which, in assay [1], the inhibition was found to be 43%. Further, the IC50 in assay [2], in assay [3] and in assay [4] was above 3000 nM in each case.
Regarding `CN[C@H](C(=O)N[C@H](C(=O)N(C)[C@H](/C=C(\C)C(=O)O)C(C)C)C(C)(C)c1ccc(OC)cc1)C(C)(C)c1ccccc1`, the inhibition in assay [1] turned out to be 56%. Also, the IC50 in assay [2] was 1790 nM; in assay [3] it was 25.5 nM; in assay [4] it was 54.9 nM.
In assay [1], `CN[C@H](C(=O)N[C@H](C(=O)N(C)[C@H](/C=C(\C)C(=O)O)C(C)C)C(C)OC)C(C)(C)c1ccccc1` (some centres not stated) returned an inhibition of 95%. For the same compound, the IC50 in assay [2] was above 3000 nM; in assay [3], 871 nM; in assay [4] it was 1740 nM.
In assay [1], `CN[C@H](C(=O)N[C@H](C(=O)N(C)[C@H](/C=C(\C)C(=O)O)C(C)C)C(C)(C)S(C)(=O)=O)C(C)(C)c1ccccc1` came in with an inhibition of 87%. The IC50 was above 3000 nM in assay [2], 178 nM in assay [3] and 589 nM in assay [4].
For `CN[C@H](C(=O)N[C@H](C(=O)N(C)[C@H](/C=C(\C)C(=O)O)C(C)C)C(C)(C)SC)C(C)(C)c1ccc(OC)cc1`, the inhibition in assay [1] was found to be 88%. The IC50 in assay [2] was 62.4 nM; in assay [3] it was 0.64 nM; in assay [4], 1.8 nM.
`CN[C@H](C(=O)N[C@H](C(=O)N(C)[C@H](/C=C(\C)C(=O)O)C(C)C)C(C)(C)C)C(C)(C)c1ccccc1` [TALTOBULIN]: the IC50 in assay [5] stood at 5 nM; in assay [6], 2 nM.
For `CN[C@H](C(=O)N[C@H](C(=O)N(C)[C@H](/C=C(\C)C(=O)O)C(C)C)C(C)(C)O)C(C)(C)c1ccccc1`, the inhibition in assay [1] was determined as 84%. For the same compound, the IC50 in assay [2] was above 3000 nM; in assay [3], 57.9 nM; in assay [4], 95 nM.
For the compound `CN[C@H](C(=O)N[C@H](C(=O)N(C)[C@H](/C=C(\C)C(=O)O)C(C)C)C(C)(C)F)C(C)(C)c1ccccc1`, the inhibition in assay [1] came out at 91%. For the same compound, the IC50 worked out at 117 nM in assay [2], 1.6 nM in assay [3] and 3.5 nM in assay [4].
For `CN[C@H](C(=O)N[C@H](C(=O)N(C)[C@H](/C=C(\C)C(=O)O)C(C)C)C(C)(C)SCc1ccc(OC)cc1)C(C)(C)c1ccc(OC)cc1`, the inhibition in assay [1] came out at 77%. Besides, the IC50 in assay [2] stood at 2090 nM; in assay [3], 15.8 nM; in assay [4], 43.7 nM.
On to `CN[C@H](C(=O)N[C@H](C(=O)N(C)[C@H](/C=C(\C)C(=O)O)C(C)C)C(C)(C)SC)C(C)(C)c1ccccc1`, for which the values for the concentration for half-maximal inhibition (IC50) in assay [2], in assay [3] and in assay [4] were 144 nM, 1.2 nM and 2.2 nM, respectively.
`CC(=O)O[C@H]1C(=O)[C@@]2(C)[C@H]([C@H](OC(=O)c3ccccc3)[C@]3(O)C[C@H](OC(=O)[C@H](O)[C@@H](NC(=O)c4ccccc4)c4ccccc4)C(C)=C1C3(C)C)[C@]1(OC(C)=O)CO[C@@H]1C[C@@H]2O` [PACLITAXEL]: the IC50 in assay [2] is above 3000 nM; in assay [7] it was 6 nM; in assay [8] it was 80 nM.
In the case of `CN[C@H](C(=O)N[C@H](C(=O)N(C)[C@H](/C=C(\C)C(=O)O)C(C)C)C(C)(C)SCc1ccc(OC)cc1)C(C)(C)c1ccccc1`, the inhibition in assay [1] is 94%. Moreover, the IC50 was determined as 2290 nM in assay [2], 58.8 nM in assay [3] and 93.7 nM in assay [4].
Consider `CN[C@H](C(=O)N[C@@H](C(=O)N(C)[C@H](/C=C(\C)C(=O)O)C(C)C)C(C)O)C(C)(C)c1ccccc1` (some centres not stated), for which the inhibition in assay [1] stood at 9%. In addition, the IC50 in assay [2], in assay [3] and in assay [4] was above 3000 nM in each case.
In the case of `CN[C@H](C(=O)N[C@H](C(=O)N(C)[C@H](/C=C(\C)C(=O)O)C(C)C)C(C)O)C(C)(C)c1ccccc1` (some centres not stated), the inhibition in assay [1] was found to be 91%. In addition, the IC50 is above 3000 nM in assay [2], 275 nM in assay [3] and 692 nM in assay [4].
